The source of these data is patent publication US20150031554A1, “EXTRACELLULAR TELOMERE ASSAY” (The UAB Research Foundation, priority 2012, published 2015).

For assay [1], the system named is human MDA-MB-23 1 breast cancer cells. As to the kind of experiment: Extracellular telomere release into cell-free conditioned media (qPCR). The class given is cell-based. Here is the method: (§1) The samples to be tested were centrifuged at 1200×g for 6 minutes to remove residual cells. The supernatant was removed and centrifuged at 12,000× for 12 minutes to remove cellular debris. DNA was isolated from the final supernatant using a Qiagen DNA isolation kit. The DNA concentration of each sample was determined with the highly sensitive pico-green fluorometric assay (Invitrogen; Carlsbad, Calif.).
(§2) The obtained purified cell-free DNA was assayed for extracellular telomere sequences. Extracellular telomeres were measured using quantitative PCR (qPCR) with the widely accepted method of Cawthon (“Telomere measurement by quantitative PCR,” Nucleic Acids Research, 30:e47 (2002)). Other DNA sequences (actin, BRCA 1, alpha satellite DNA, and Alu repeats) were analyzed using published primers and conditions. Normal human genomic DNA (Roche; Basel, Switzerland) was used to create a telomere qPCR standard curve for the clinical specimens. For mouse standard curves, normal mouse genomic DNA isolated from murine peripheral blood cells was used.
(In qPCR the cycle at which signal appears reflects the starting amount.)

In assay [2] the test system is D54, a human brain cancer cell line. The assay is described as follows: Extracellular telomere release into conditioned media (qPCR). The class given is cell-based. The settings on record: in response to doxorubicin treatment (FIG. 2B). How it is done:
as §1, §2

The subject of assay [3] is U373, a human brain cancer cell line. The assay is described as above. To be noted: in response to doxorubicin treatment (FIG. 2A). The class given is cell-based. How it is done:
as §1, §2

The subject of a further assay is G-quadruplex. To be noted: versus duplex, single strand, and hairpins; method of Balasubramanian et al.; cited from earlier work.

On to `COc1cccc2c1C(=O)c1c(O)c3c(c(O)c1C2=O)C[C@@](O)(C(=O)CO)C[C@@H]3O[C@H]1C[C@H](N)[C@H](O)[C@H](C)O1` [doxorubicin], for which the extracellular telomere release entry in assay [1] (doxorubicin 10^−5 M, indicated times, Alu and alpha satellite sequences as controls (FIG. 1)) is listed as “specifically released”; in assay [2] it was “extracellular telomere release”; in assay [3], “extracellular telomere release”. Also, the “telomere enrichment in cell-free conditioned media” value in assay [1] (qPCR, compared with untreated cells or cells subjected to hypoxia, 2 independent experiments (FIG. 5)) is listed as “highly enriched”.
Consider `NCCOc1cc(C(=O)Nc2cc(OCCN)c3ccccc3n2)nc(C(=O)Nc2cc(OCCN)c3ccccc3n2)c1` [compound 2, pyridostatin], for which the selectivity of capture result in the assay with G-quadruplex is given as “selective for G-quadruplex capture over other DNA structural motifs”.
